Data from ChEMBL document CHEMBL3045199, “Synthesis of some (E)-6-[2-(furan-2-yl)ethenyl]-1,2,4-triazin-5-ones and their biological evaluation as antitumor agents” (2013).

Assays:
Type in all cases: functional
[1] = test system: CAKI-1; assay: Cytotoxicity against Homo sapiens (human) Caki1 cells after 48 hr by SRB assay; conditions: CAKI-1, 48 h
[2] = test system: EKVX; assay: Cytotoxicity against Homo sapiens (human) EKVX cells assessed as growth inhibition at 10 uM after 24 hr; conditions: read-out: GI
[3] = test system: Hs-578T; assay: Cytotoxicity against Homo sapiens (human) Hs 578T cells after 48 hr by SRB assay
[4] = test system: HT-29; assay: Cytotoxicity against Homo sapiens (human) HT-29 cells assessed as growth inhibition at 10 uM after 24 hr; conditions: HT-29, 24 h, read-out: GI
[5] = test system: BT-549; assay: Cytotoxicity against Homo sapiens (human) BT549 cells after 48 hr by SRB assay; conditions: BT-549, 48 h
[6] = test system: RPMI-8226; assay: Cytotoxicity against Homo sapiens (human) RPMI8226 cells after 48 hr by SRB assay; conditions: RPMI-8226, 48 h
[7] = Cytotoxicity against Homo sapiens (human) NCI-ADR-RES cells assessed as growth inhibition at 10 uM after 24 hr; conditions: read-out: GI
[8] = test system: LOX IMVI; assay: Cytotoxicity against Homo sapiens (human) LOXIMVI cells after 48 hr by SRB assay
[9] = test system: HCC 2998; assay: Cytotoxicity against Homo sapiens (human) HCC2998 cells after 48 hr by SRB assay; conditions: HCC 2998, 48 h
[10] = test system: U-251; assay: Cytotoxicity against Homo sapiens (human) U251 cells after 48 hr by SRB assay; conditions: U-251, 48 h
[11] = test system: SK-MEL-5; assay: Cytotoxicity against Homo sapiens (human) SK-MEL-5 cells after 48 hr by SRB assay; conditions: SK-MEL-5, 48 h
[12] = test system: HL-60(TB); assay: Cytotoxicity against Homo sapiens (human) HL-60(TB) cells assessed as growth inhibition at 10 uM after 24 hr; conditions: HL-60, 24 h, read-out: GI
[13] = test system: SF-539; assay: Cytotoxicity against Homo sapiens (human) SF539 cells assessed as growth inhibition at 10 uM after 24 hr; conditions: SF-539, 24 h, read-out: GI
[14] = test system: SW-620; assay: Cytotoxicity against Homo sapiens (human) SW620 cells assessed as growth inhibition at 10 uM after 24 hr; conditions: SW-620, 24 h, read-out: GI
[15] = test system: NCI-H322M; assay: Cytotoxicity against Homo sapiens (human) NCI-H322M cells assessed as growth inhibition at 10 uM after 24 hr; conditions: read-out: GI
[16] = test system: EKVX; assay: Cytotoxicity against Homo sapiens (human) EKVX cells after 48 hr by SRB assay
[17] = test system: SW-620; assay: Cytotoxicity against Homo sapiens (human) SW620 cells after 48 hr by SRB assay; conditions: SW-620, 48 h
[18] = test system: A549; assay: Cytotoxicity against Homo sapiens (human) A549/ATCC cells assessed as growth inhibition at 10 uM after 24 hr; conditions: A549, 24 h, read-out: GI
[19] = test system: ACHN; assay: Cytotoxicity against Homo sapiens (human) ACHN cells after 48 hr by SRB assay
[20] = test system: SNB-75; assay: Cytotoxicity against Homo sapiens (human) SNB75 cells after 48 hr by SRB assay; conditions: SNB-75, 48 h
[21] = test system: SNB-19; assay: Cytotoxicity against Homo sapiens (human) SNB19 cells after 48 hr by SRB assay; conditions: SNB-19, 48 h
[22] = test system: UO-31; assay: Cytotoxicity against Homo sapiens (human) UO31 cells after 48 hr by SRB assay; conditions: UO-31, 48 h
[23] = test system: OVCAR-3; assay: Cytotoxicity against Homo sapiens (human) OVCAR3 cells assessed as growth inhibition at 10 uM after 24 hr; conditions: OVCAR-3, 24 h, read-out: GI
[24] = test system: SK-MEL-28; assay: Cytotoxicity against Homo sapiens (human) SK-MEL-28 cells after 48 hr by SRB assay; conditions: SK-MEL-28, 48 h
[25] = test system: MOLT-4; assay: Cytotoxicity against Homo sapiens (human) MOLT4 cells assessed as growth inhibition at 10 uM after 24 hr; conditions: MOLT-4, 24 h, read-out: GI
[26] = test system: NCI-H322M; assay: Cytotoxicity against Homo sapiens (human) NCI-H322M cells after 48 hr by SRB assay
[27] = test system: DU-145; assay: Cytotoxicity against Homo sapiens (human) DU145 cells after 48 hr by SRB assay; conditions: DU-145, 48 h
[28] = test system: HT-29; assay: Cytotoxicity against Homo sapiens (human) HT-29 cells after 48 hr by SRB assay; conditions: HT-29, 48 h
[29] = Cytotoxicity against Homo sapiens (human) renal cancer cells after 48 hr by SRB assay; conditions: Cancer cell lines
[30] = test system: KM12; assay: Cytotoxicity against Homo sapiens (human) KM12 cells after 48 hr by SRB assay; conditions: KM12, 48 h
[31] = test system: UACC-257; assay: Cytotoxicity against Homo sapiens (human) UACC257 cells assessed as growth inhibition at 10 uM after 24 hr; conditions: UACC-257, 24 h, read-out: GI
[32] = test system: SF-295; assay: Cytotoxicity against Homo sapiens (human) SF295 cells after 48 hr by SRB assay; conditions: SF-295, 48 h
[33] = test system: COLO 205; assay: Cytotoxicity against Homo sapiens (human) COLO205 cells after 48 hr by SRB assay; conditions: COLO 205, 48 h
[34] = test system: CCRF-CEM; assay: Cytotoxicity against Homo sapiens (human) CCRF-CEM cells after 48 hr by SRB assay
[35] = test system: MDA-MB-468; assay: Cytotoxicity against Homo sapiens (human) MDA-MB-468 cells after 48 hr by SRB assay; conditions: MDA-MB-468, 48 h
[36] = test system: CAKI-1; assay: Cytotoxicity against Homo sapiens (human) Caki1 cells assessed as growth inhibition at 10 uM after 24 hr; conditions: CAKI-1, 24 h, read-out: GI
[37] = read-out: LC50 (the source's name)

Nc1cc(-c2ccc(Cl)cc2)nn1-c1nc(=O)c(/C=C/c2ccco2)n[nH]1
LC50 [1]: > 100 µM | TGI [1]: 4.6 µM | GI50 ([1]; read-out: GI50): 370 nM | GI50 ([1]; read-out: pGI50 (converted)): 372 nM | inhibition of growth at 10 µM [2]: 58.3% | GI50 [3]: 8.51 µM | inhibition of growth at 10 µM [4]: 55.8% | TGI [5]: 43.8 µM | GI50 ([5]; read-out: GI50): 4.42 µM | CC50 [5, 37]: > 100 µM | GI50 ([5]; read-out: pGI50 (converted)): 4.47 µM | LC50 [6]: > 100 µM | TGI [6]: 23.2 µM | GI50 ([6]; read-out: GI50): 3.03 µM | GI50 ([6]; read-out: pGI50 (converted)): 3.02 µM | inhibition of growth at 10 µM [7]: 94.3% | TGI [8]: 73.4 µM | GI50 ([8]; read-out: GI50): 6.69 µM | CC50 [8, 37]: > 100 µM | GI50 ([8]; read-out: pGI50 (converted)): 6.76 µM | TGI [9]: > 100 µM | GI50 ([9]; read-out: GI50): 5.59 µM | CC50 [9, 37]: > 100 µM | GI50 ([9]; read-out: pGI50 (converted)): 5.62 µM | TGI [10]: 84.8 µM | GI50 ([10]; read-out: GI50): 4.47 µM | CC50 [10, 37]: > 100 µM | GI50 ([10]; read-out: pGI50 (converted)): 4.47 µM | TGI [11]: 24.8 µM | GI50 ([11]; read-out: GI50): 3.83 µM | CC50 [11, 37]: > 100 µM | GI50 ([11]; read-out: pGI50 (converted)): 3.8 µM | inhibition of growth at 10 µM [12]: 4.83% | inhibition of growth at 10 µM [13]: 44.6% | inhibition of growth at 10 µM [14]: 50.8% | inhibition of growth at 10 µM [15]: 75.6% | TGI [16]: 31.1 µM | GI50 ([16]; read-out: GI50): 3.57 µM | CC50 [16, 37]: > 100 µM | GI50 ([16]; read-out: pGI50 (converted)): 3.55 µM | TGI [17]: > 100 µM | GI50 ([17]; read-out: GI50): 5.02 µM | CC50 [17, 37]: > 100 µM | GI50 ([17]; read-out: pGI50 (converted)): 5.01 µM | inhibition of growth at 10 µM [18]: 62.7% | LC50 [19]: > 100 µM | TGI [19]: 24.8 µM | GI50 ([19]; read-out: GI50): 3.8 µM | GI50 ([19]; read-out: pGI50 (converted)): 3.8 µM | TGI [20]: 37.2 µM | GI50 ([20]; read-out: GI50): 10.6 µM | CC50 [20, 37]: > 100 µM | GI50 ([20]; read-out: pGI50 (converted)): 10.7 µM | TGI [21]: 69.4 µM | GI50 ([21]; read-out: GI50): 5.81 µM | CC50 [21, 37]: > 100 µM | GI50 ([21]; read-out: pGI50 (converted)): 5.75 µM | TGI [22]: 13.7 µM | GI50 ([22]; read-out: GI50): 1630 nM | CC50 [22, 37]: > 100 µM | GI50 ([22]; read-out: pGI50 (converted)): 1620 nM | inhibition of growth at 10 µM [23]: 62.1% | LC50 [24]: > 100 µM | TGI [24]: 82.3 µM | GI50 ([24]; read-out: GI50): 4.06 µM | GI50 ([24]; read-out: pGI50 (converted)): 4.07 µM | inhibition of growth at 10 µM [25]: 55.6% | TGI [26]: 38.2 µM | GI50 ([26]; read-out: GI50): 1470 nM | CC50 [26, 37]: > 100 µM | GI50 ([26]; read-out: pGI50 (converted)): 1480 nM | LC50 [27]: 55.4 µM | TGI [27]: 18.3 µM | GI50 ([27]; read-out: GI50): 3.01 µM | GI50 ([27]; read-out: pGI50 (converted)): 3.02 µM | TGI [28]: > 100 µM | GI50 ([28]; read-out: GI50): 7.82 µM | CC50 [28, 37]: > 100 µM | GI50 ([28]; read-out: pGI50 (converted)): 7.76 µM | GI50 [29]: 5.85 µM | TGI [29]: 37.4 µM | CC50 [29, 37]: > 100 µM | TGI [30]: 32 µM | GI50 ([30]; read-out: GI50): 3.19 µM | CC50 [30, 37]: > 100 µM | GI50 ([30]; read-out: pGI50 (converted)): 3.16 µM | inhibition of growth at 10 µM [31]: 30.4% | TGI [32]: 24.3 µM | GI50 ([32]; read-out: GI50): 1580 nM | CC50 [32, 37]: > 100 µM | GI50 ([32]; read-out: pGI50 (converted)): 1580 nM | TGI [33]: 18.4 µM | GI50 ([33]; read-out: GI50): 3.44 µM | CC50 [33, 37]: > 100 µM | GI50 ([33]; read-out: pGI50 (converted)): 3.47 µM | LC50 [34]: > 100 µM | TGI [34]: 16.8 µM | GI50 ([34]; read-out: GI50): 2880 nM | GI50 ([34]; read-out: pGI50 (converted)): 2880 nM | GI50 [35]: 3.08 µM | TGI [35]: 22.2 µM | CC50 [35, 37]: > 100 µM | inhibition of growth at 10 µM [36]: 99%

O=c1[nH]cc(F)c(=O)[nH]1 [FLUOROURACIL]
GI50 ([1]; read-out: pGI50 (converted)): 3980 nM | GI50 [3]: 251 µM | GI50 ([5]; read-out: pGI50 (converted)): 100 µM | GI50 ([6]; read-out: pGI50 (converted)): 5.01 µM | GI50 ([8]; read-out: pGI50 (converted)): 6.31 µM | GI50 ([9]; read-out: pGI50 (converted)): 1.58 µM | GI50 ([10]; read-out: pGI50 (converted)): 39.8 µM | GI50 ([11]; read-out: pGI50 (converted)): 12.6 µM | GI50 ([16]; read-out: pGI50 (converted)): 316 µM | GI50 ([17]; read-out: pGI50 (converted)): 25.1 µM | GI50 ([19]; read-out: pGI50 (converted)): 10 µM | GI50 ([20]; read-out: pGI50 (converted)): 200 µM | GI50 ([21]; read-out: pGI50 (converted)): 126 µM | GI50 ([22]; read-out: pGI50 (converted)): 5010 nM | GI50 ([24]; read-out: pGI50 (converted)): 50.1 µM | GI50 ([26]; read-out: pGI50 (converted)): 20000 nM | GI50 ([27]; read-out: pGI50 (converted)): 10 µM | GI50 ([28]; read-out: pGI50 (converted)): 6.31 µM | GI50 ([30]; read-out: pGI50 (converted)): 10 µM | GI50 ([32]; read-out: pGI50 (converted)): 50100 nM | GI50 ([33]; read-out: pGI50 (converted)): 6.31 µM | GI50 ([34]; read-out: pGI50 (converted)): 31600 nM
